Laboratory results published in US20060116368A1, “4-Piperidinecarboxamide modulators of vanilloid VR1 receptor” (priority 2004, published 2006).

Target: T1, Human Vanilloid Receptor 1 (Homo sapiens, UniProt Q8NER1)
T1 construct: expressed in transfected cells; host or cells: HEK 293
Assay: Human VR1 functional assay using FLIPR, Protocol 1
Assay type: cell-based
Details: for inhibition at 9 µM: HEK293, 9 uM, inhibition of capsaicin (EC80)-induced calcium response, HEK 293 cells transfected with hVR1, read-out: h % I (9 uM); for IC50: decreased capsaicin (EC80)-induced calcium response, HEK 293 hVR1, read-out: h IC50; for Emax at 12.2 µM: HEK293, 12.2 uM, test compound-induced calcium response (agonist mode), HEK 293 hVR1, read-out: % maximal reponse to capsaicin (12.2 uM); for EC50: test compound-induced calcium response at the 5-minute time point, HEK 293 hVR1, read-out: h EC50
Method: The functional activity of the test compounds was determined by measuring changes in intracellular calcium concentration using FLIPR™ Calcium-3 Assay Kit and FLIPR™ technology.
HEK 293 cells transfected with Human Vanilloid Receptor 1 were maintained at 37° C. and 5% CO2 in: Dulbecco's Modification of Eagle's Medium (high glucose, L-glutamine, pyridoxine HCl, No sodium pyruvate), 10% FBS, 1× Penicillin-Streptomycin-Amphotericin B, 200 ug/mL zeocin. Approximately 24 hours prior to assay, 30,000 cells/well were plated onto a 384-well black clear bottom poly-D-lysine-coated assay plate with a well volume of 25 µL using Titertek Multidrop.
On the day of the assay, the medium was dumped and 50 μL 1× dye were loaded using Multidrop. Plates were incubated with dye at 37° C. for 30 minutes followed by 30 minutes incubation at room temperature. Then the plates were assayed by FLIPR™ with 2 additions: 12.5 μL test compound with 5 minutes data acquisition followed by 12.5 μL capsaicin at the EC80 concentration.
The EC50 values of test compounds were calculated based on a test compound-induced calcium response at the 5-minute time point. The IC50 values of compounds were calculated based on a decreased capsaicin-induced calcium response in the presence of test compound.

T1 sequence (Q8NER1 whole entry): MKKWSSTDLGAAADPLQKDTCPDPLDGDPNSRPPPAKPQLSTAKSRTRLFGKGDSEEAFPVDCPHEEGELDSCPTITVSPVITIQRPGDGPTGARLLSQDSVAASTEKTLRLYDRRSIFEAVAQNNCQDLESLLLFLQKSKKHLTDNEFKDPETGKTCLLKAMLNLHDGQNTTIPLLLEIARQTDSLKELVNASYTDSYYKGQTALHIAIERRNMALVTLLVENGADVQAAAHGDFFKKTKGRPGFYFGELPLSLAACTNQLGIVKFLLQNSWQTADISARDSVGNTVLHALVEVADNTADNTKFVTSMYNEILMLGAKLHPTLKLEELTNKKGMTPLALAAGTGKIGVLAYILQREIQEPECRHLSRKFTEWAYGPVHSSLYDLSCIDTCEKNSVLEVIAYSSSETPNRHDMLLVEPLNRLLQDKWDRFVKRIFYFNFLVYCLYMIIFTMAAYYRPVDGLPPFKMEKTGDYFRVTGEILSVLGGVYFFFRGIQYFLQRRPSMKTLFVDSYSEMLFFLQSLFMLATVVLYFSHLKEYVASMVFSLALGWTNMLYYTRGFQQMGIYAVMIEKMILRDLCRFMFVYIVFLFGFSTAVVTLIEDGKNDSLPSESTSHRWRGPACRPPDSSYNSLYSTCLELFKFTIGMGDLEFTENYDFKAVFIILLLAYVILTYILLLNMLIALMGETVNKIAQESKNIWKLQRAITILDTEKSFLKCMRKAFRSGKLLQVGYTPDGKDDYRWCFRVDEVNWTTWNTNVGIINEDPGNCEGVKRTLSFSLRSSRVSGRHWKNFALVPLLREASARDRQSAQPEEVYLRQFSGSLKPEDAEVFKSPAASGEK

Structure (SMILES)	inhibition at 9 µM [%]	IC50 [nM]	Emax at 12.2 µM [%]	EC50 [nM]
O=C(Nc1cnc2ccccc2c1)C1CCN(c2ccc(-c3ccccc3)cc2)CC1 [Example 1, 1-Biphenyl-4-yl-piperidine-4-carboxylic acid quinolin-3-ylamide]	7			
O=C(Nc1cnc2ccccc2c1)C1CCN(c2cccc(C(F)(F)F)c2)CC1 [Example 2, 1-(3-Trifluoromethyl-phenyl)-piperidine-4-carboxylic acid quinolin-3-ylamide]	109	600		
O=C(Nc1cnc2ccccc2c1)C1CCN(c2cccc(-c3ccccc3)c2)CC1 [Example 3, 1-Biphenyl-3-yl-piperidine-4-carboxylic acid quinolin-3-ylamide]	44	15500		
O=C(Nc1cnc2ccccc2c1)C1CCN(c2ccc(C(F)(F)F)cc2)CC1 [Example 4, 1-(4-Trifluoromethyl-phenyl)-piperidine-4-carboxylic acid quinolin-3-ylamide]	7.5			
Cc1cccc(N2CCC(C(=O)Nc3cnc4ccccc4c3)CC2)c1C [Example 5, 1-(2,3-Dimethyl-phenyl)-piperidine-4-carboxylic acid quinolin-3-ylamide]	102	230		
CCn1cnc2c(NC(=O)C3CCN(c4cccc(C(F)(F)F)c4)CC3)ncnc21 [Example 7, 1-(3-Trifluoromethyl-phenyl)-piperidine-4-carboxylic acid (9-ethyl-9H-purin-6-yl)-amide]	5			
O=C(Nc1ncnc2sccc12)C1CCN(c2cccc(C(F)(F)F)c2)CC1 [Example 10, 1-(3-Trifluoromethyl-phenyl)-piperidine-4-carboxylic acid thieno[2,3-d]pyrimidin-4-ylamide]			81	860
O=C(Nc1cccc2cn[nH]c12)C1CCN(c2cccc(C(F)(F)F)c2)CC1 [Example 11, 1-(3-Trifluoromethyl-phenyl)-piperidine-4-carboxylic acid (1H-indazol-7-yl)-amide]	72	2840		
Cc1nsc2ccc(NC(=O)C3CCN(c4cccc(C(F)(F)F)c4)CC3)cc12 [Example 12, 1-(3-Trifluoromethyl-phenyl)-piperidine-4-carboxylic acid (3-methyl-benzo[d]isothiazol-5-yl)-amide]			74	860
CCOC(=O)c1[nH]c2ccccc2c1NC(=O)C1CCN(c2cccc(C(F)(F)F)c2)CC1 [Example 14, 3-{[1-(3-Trifluoromethyl-phenyl)-piperidine-4-carbonyl]-amino}-1H-indole-2-carboxylic acid ethyl ester]	4			
O=C(Nc1ccc2c(c1)OCO2)C1CCN(c2cccc(C(F)(F)F)c2)CC1 [Example 15, 1-(3-Trifluoromethyl-phenyl)-piperidine-4-carboxylic acid benzo[1,3]dioxol-5-ylamide]	61	4570		
O=C1Cc2cc(NC(=O)C3CCN(c4cccc(C(F)(F)F)c4)CC3)ccc2N1 [Example 17, 1-(3-Trifluoromethyl-phenyl)-piperidine-4-carboxylic acid (2-oxo-2,3-dihydro-1H-indol-5-yl)-amide]			49	470
O=C(Nc1ccc2c(c1)OCCO2)C1CCN(c2cccc(C(F)(F)F)c2)CC1 [Example 18, 1-(3-Trifluoromethyl-phenyl)-piperidine-4-carboxylic acid (2,3-dihydro-benzo[1,4]dioxin-6-yl)-amide]	12.5			
Cc1nc2cc(NC(=O)C3CCN(c4cccc(C(F)(F)F)c4)CC3)ccc2s1 [Example 19, 1-(3-Trifluoromethyl-phenyl)-piperidine-4-carboxylic acid (2-methyl-benzothiazol-5-yl)-amide]	7.5			
O=C(Nc1nsc2ccc([N+](=O)[O-])cc12)C1CCN(c2cccc(C(F)(F)F)c2)CC1 [Example 20, 1-(3-Trifluoromethyl-phenyl)-piperidine-4-carboxylic acid (5-nitro-benzo[d]isothiazol-3-yl)-amide]	2.5			
O=C(Nc1ccc2[nH]ccc2c1)C1CCN(c2cccc(C(F)(F)F)c2)CC1 [Example 22, 1-(3-Trifluoromethyl-phenyl)-piperidine-4-carboxylic acid (1H-indol-5-yl)-amide]	78	1070		

Structure (SMILES)	inhibition at 9 µM [%]	IC50 [nM]	Emax at 12.2 µM [%]	EC50 [nM]
O=C(Nc1ccc2cc[nH]c2c1)C1CCN(c2cccc(C(F)(F)F)c2)CC1 [Example 23, 1-(3-Trifluoromethyl-phenyl)-piperidine-4-carboxylic acid (1H-indol-6-yl)-amide]	19			
Cn1ncc2cc(NC(=O)C3CCN(c4cccc(C(F)(F)F)c4)CC3)ccc21 [Example 24, 1-(3-Trifluoromethyl-phenyl)-piperidine-4-carboxylic acid (1-methyl-1H-indazol-5-yl)-amide]			68.5	1500
COc1ccc(NC(=O)C2CCN(c3cccc(C(F)(F)F)c3)CC2)cn1 [Example 25, 1-(3-Trifluoromethyl-phenyl)-piperidine-4-carboxylic acid (6-methoxy-pyridin-3-yl)-amide]			74	850
O=C(Nc1ccc2nc(S)sc2c1)C1CCN(c2cccc(C(F)(F)F)c2)CC1 [Example 26, 1-(3-Trifluoromethyl-phenyl)-piperidine-4-carboxylic acid (2-mercapto-benzothiazol-6-yl)-amide]			35.5	2550
O=C(Nc1ccc(O)c2ncccc12)C1CCN(c2cccc(C(F)(F)F)c2)CC1 [Example 27, 1-(3-Trifluoromethyl-phenyl)-piperidine-4-carboxylic acid (8-hydroxy-quinolin-5-yl)-amide]	13			
O=C(Nc1ccc2c(c1)OCCCO2)C1CCN(c2cccc(C(F)(F)F)c2)CC1 [Example 28, 1-(3-Trifluoromethyl-phenyl)-piperidine-4-carboxylic acid (3,4-dihydro-2H-benzo[b][1,4]dioxepin-7-yl)-amide]	77	2180		
CC(=O)N1CCc2cc(NC(=O)C3CCN(c4cccc(C(F)(F)F)c4)CC3)ccc21 [Example 29, 1-(3-Trifluoromethyl-phenyl)-piperidine-4-carboxylic acid (1-acetyl-2,3-dihydro-1H-indol-5-yl)-amide]	13			
O=C(Nc1cccc2cc[nH]c12)C1CCN(c2cccc(C(F)(F)F)c2)CC1 [Example 30, 1-(3-Trifluoromethyl-phenyl)-piperidine-4-carboxylic acid (1H-indol-7-yl)-amide]			40	5310
O=C(Nc1ccc2c(=O)[nH][nH]c(=O)c2c1)C1CCN(c2cccc(C(F)(F)F)c2)CC1 [Example 31, 1-(3-Trifluoromethyl-phenyl)-piperidine-4-carboxylic acid (1,4-dioxo-1,2,3,4-tetrahydro-phthalazin-6-yl)-amide]	16			
O=C(Nc1ccc(Oc2ccccc2)nc1)C1CCN(c2cccc(C(F)(F)F)c2)CC1 [Example 32, 1-(3-Trifluoromethyl-phenyl)-piperidine-4-carboxylic acid (6-phenoxy-pyridin-3-yl)-amide]	13			
CN(C)c1nc(NC(=O)C2CCN(c3cccc(C(F)(F)F)c3)CC2)ncc1-c1ccccc1 [Example 35, 1-(3-Trifluoromethyl-phenyl)-piperidine-4-carboxylic acid (4-dimethylamino-5-phenyl-pyrimidin-2-yl)-amide]	14			
CCOC(=O)c1c(C)nn(-c2ccc(NC(=O)C3CCN(c4cccc(C(F)(F)F)c4)CC3)cn2)c1C [Example 36, 3,5-Dimethyl-1-(5-{[1-(3-trifluoromethyl-phenyl)-piperidine-4-carbonyl]-amino}-pyridin-2-yl)-1H-pyrazole-4-carboxylic acid ethyl ester]	14			
CC(=O)N1c2cc(NC(=O)C3CCN(c4cccc(C(F)(F)F)c4)CC3)ccc2CC1C (stereo not drawn) [Example 37, 1-(3-Trifluoromethyl-phenyl)-piperidine-4-carboxylic acid (1-acetyl-2-methyl-2,3-dihydro-1H-indol-6-yl)-amide]	46.5	2640		
O=C1Cc2ccc(NC(=O)C3CCN(c4cccc(C(F)(F)F)c4)CC3)cc2N1 [Example 38, 1-(3-Trifluoromethyl-phenyl)-piperidine-4-carboxylic acid (2-oxo-2,3-dihydro-1H-indol-6-yl)-amide]			62.8	320
O=C(Nc1ncnc2ccccc12)C1CCN(c2cccc(C(F)(F)F)c2)CC1 [Example 39, 1-(3-Trifluoromethyl-phenyl)-piperidine-4-carboxylic acid quinazolin-4-ylamide]	3.5			
Cc1nc2ccc(NC(=O)C3CCN(c4cccc(C(F)(F)F)c4)CC3)nc2nc1C [Example 40, 1-(3-Trifluoromethyl-phenyl)-piperidine-4-carboxylic acid (2,3-dimethyl-pyrido[2,3-b]pyrazin-6-yl)-amide]	11.5			
